Reference: patent US20240051997A1, “SAP AND PEPTIDOMIMETIC COMPOSITIONS FOR REDUCING SYMPTOMS OF INFLAMMATION” (Arch Biosurgery, Inc., priority 2018, published 2024)
“Also recorded” adds a separate entry of the source.

Key:
Human THP-1 cells = experiment: Cytokine release by THP-1 cells exposed to LPS/RADA-16 mixture; assay type: cell-based; conditions: LPS 1 μg/ml added to 1, 10 or 100 μg/well peptide, then to THP-1 cells
Description: The anti-inflammatory effect of a SAP was examined using an in vitro assay to assess cytokine release by human THP-1 cells in the presence of SAP. Measurement of THP-1 cell activation in response to antigen was assessed by cytokine release.
To assess cytokine release upon THP-1 cell activation, lipopolysaccharides (LPS) from Salmonella typhimurium (catalog no. L-7261; Sigma-Aldrich, St. Louis, MO) were added to THP-1 cells, at a concentration of 1 μg/ml.
To determine the effects of exposing THP-1 cells to RADA-16 (SEQ ID NO: 1) upon cytokine release, LPS was added to each of the 1 μg/well, 10 μg/well, or 100 μg/well RADA-16 samples, and then added to THP-1 cells.
The release of cytokines in response to exposure of THP-1 cells to RADA-16 (SEQ ID NO: 1) or LPS was measured using the PROTEOME PROFILER™ Array kit, commercially available as a test strip kit for detection of cytokines in solution (R&D Systems, Inc., Catalog Number ARY005). The assay was carried out according to the manufacturer's guide lines.

[1] = system: liver inflammation, ED-1 reactivity (macrophage activation); experiment: Rat liver injury model (punch biopsy), ED-1 immunohistochemistry; assay type: in vivo, Sprague-Dawley rat; conditions: 4 mm punch biopsy, all time-points observed, compared to saline or acid controls
Description: The anti-inflammatory effects of EARA-16 (SEQ ID NO: 89) and RADA-16 (SEQ ID NO: 1) SAPs were examined using a liver injury model. Levels of inflammation were assayed through immuno-histochemical ED-1 reactivity (ED-1 serves as a marker of macrophage activation).
Pigs or adult Sprague-Dawley rats were anesthetized and their intraperitoneal cavities were opened under aseptic conditions. For each animal, the liver was exposed and then subjected to an 8 mm (pig) or 4 mm (rat) punch biopsy.
The punch sites were then cauterized or treated with acid (for pH control), saline, or RADA-16 (SEQ ID NO: 1) or EARA-16 (SEQ ID NO: 89) solutions. The animals were allowed to survive for up to 14 days. The animals were then sacrificed and their livers were harvested and sectioned. An ED-1 antibody was used to determine the level of inflammation and activation of macrophages in the liver via immunohistochemistry (IHC).

[2] = system: olfactory bulb inflammation, GFAP (reactive astrocytes); experiment: Olfactory bulb injury model (transection), GFAP immunohistochemistry; assay type: in vivo, Sprague-Dawley rat; conditions: rat olfactory bulb, days 2-14
Description: The anti-inflammatory effects of EARA-16 (SEQ ID NO: 89) and RADA-16 (SEQ ID NO: 1) were examined using an olfactory bulb injury model. Levels of inflammation were assayed through immunohistochemical staining for glial fibrillary acidic protein (GFAP) as an indicator of reactive astrocytes.
In brief, the olfactory bulbs of adult Sprague-Dawley rats were unilaterally transected and the cuts were then treated with either saline as a control, or one of RADA-16 (SEQ ID NO: 1) or EARA-16 (SEQ ID NO: 89) solutions (each used at 1% and 3%). The SAP materials were injected into the cuts post transection at the time of surgery. After 2, 7 or 14 days, the animals were sacrificed.
A more detailed protocol is as follows: adult Sprague-Dawley rats were anesthetized with a mixture of ketamine (80 mg/kg, i. p.) and xylazine (8 mg/kg, i. p.). The head was shaved and a thorough disinfection of the head surface was carried out with iodine 5% solution. The bilateral olfactory bulbs were exposed by drilling two burr holes (2 mm diameter, 8 mm anterior to the bregma) on either side at a distance of 2 mm from the midline of the frontal bone in the region overlying the olfactory bulbs. A cataract knife with a blunted end and one sharpened edge was used for surgery. The cut was performed on the middle of olfactory bulb. The blunted edge of the knife was inserted along the middle line of the olfactory bulb to prevent damage of the sagittal sinus, until the tip of the knife lightly touched the bottom of the brain without penetration of the dura. The knife was then moved laterally to transect the bulb until it reached the lateral edge of the hole. The knife was then rotated and pulled out to have a complete cut of the bulb at lateral side. This procedure was modified from the method described in several previous studies attempting to isolate the olfactory bulb from other parts of the brain (Ahrens & Freeman 2001; Allison 1953; Chaput 1983; Freeman 1968; Koliatsos et al 2004; Munirathinam et al 1997).
After performing the cut, one of the solutions was used to treat the injury site: either 10 μl saline (control group) or the EARA-16 (SEQ ID NO: 89) or RADA-16 (SEQ ID NO: 1) SAP (at a concentration of 1% and 3%) was injected evenly into the wound site using a self-constructed hydraulic pressure injection system without micro syringe. This technique was modified from similar methods as described by Bullier and others (Bullier et al 1980; Fish & Rhoades 1981; Kratskin et al 1997; Meyers & Snow 1981; Price et al 1977; Shipley 1982). Care was taken to control the speed of the injection of the saline or the SAP. After the injection, the wound was closed and the animals were placed in a warm place for recovery before they were brought back to their home cages. […]

“RADARADARADARADA [RADA-16, self-assembling peptide]” was tested, and the “cytokine release upon LPS exposure (C5a, TNFSF2, IL-6, IL-8/CXCL8, MCP-1/CCL2, MIP-1/CCL3, MIP-1/CCL4, IL-1/IL1-F2)” value (Human THP-1 cells) was “reduced levels of cytokine release; also recorded: prevented or reduced the release of cytokines”, the “levels of inflammation in liver (ED-1 IHC)” value [1] was “markedly reduced the levels of inflammation” and the “time course of reactive astrocyte activation / inflammation (GFAP)” value ([2]; 1% solution) was “increased activation of reactive astrocytes on day 7 which subsequently reduced by day 14”. For the same sequence, the “time course of reactive astrocyte activation / inflammation (GFAP)” value ([2]; 3% solution) was “increased activation of reactive astrocytes on day 7 which subsequently reduced by day 14”.
